Values joined by “and” are separate entries in the source; they are usually repeats but may differ in a detail not shown here. Identical values can stand only once. Like-named read-outs stand apart in the source and are kept apart here.
Tests used:
[1] = MTT cell viability / cytotoxicity in Vero E6 cells; parameters: cytotoxicity to Vero E6 cells: dose or concentration left out as unconfirmed; settings: African green monkey
[2] = test system: SARS-CoV-2; assay: microbe, parasite or virus in culture; assay type: cell-based; settings: for API Value: ratio of 10 μM inhibition % of tested drug to the reference remdesivir
[3] = biological target: SARS-CoV-2 Main protease (Severe acute respiratory syndrome coronavirus 2, UniProt P0DTD1); assay: biochemical
[4] = test system: Vero E6 cells; assay: MTT cell viability / cytotoxicity in Vero E6 cells; parameters: cytotoxicity to Vero E6 cells: dose or concentration left out as unconfirmed; settings: for IC50: read-out: Cytotoxicity (Vero E6) (IC50), Vero E6 cells, MTT test
[5] = test system: SARS-CoV Main protease; settings: cited from earlier work
[6] = test system: Main protease of MERS-CoV; settings: cited from earlier work
[7] = Cytotoxicity (Vero E6) (IC50, μM), Vero E6 cells, MTT test
[8] = Severe acute respiratory syndrome coronavirus 2, Vero C1008, 1 μM, infected Vero E6 cells, MOI 0.01, read-out: Anti-SARS-CoV-2 Effect Assay (%) 1 μM
[9] = Severe acute respiratory syndrome coronavirus 2, Vero C1008, 10 μM, infected Vero E6 cells, MOI 0.01, read-out: Anti-SARS-CoV-2 Effect Assay (%) 10 μM
[10] = triplicate readings with SE, read-out: IC50 (μM) ± SE

| Compound | IC50 [1, 7] [µM] | inhibition at 1 µM [2, 8] [%] | inhibition at 10 µM [2, 9] [%] | API Value [2] | IC50 [3, 10] | further results |
| --- | --- | --- | --- | --- | --- | --- |
| CC1=NN(c2ccc(Cl)cc2)C(=O)/C1=C\c1ccc(OCc2cn(-c3ccc(C(=O)O)cc3)nn2)cc1 [6a] | 17.1 ± 13 | 10.8 ± 0.06 | 19.3 | 0.21 | 76 µM and 76.9 µM | Anti-SARS-CoV-2 Effect Assay (%) 10 μM ([2]; 10 μM, infected Vero E6 cells, MOI 0.01): 19.27 ± 0.51% |
| CC1=NN(c2ccccc2)C(=O)/C1=C\c1ccc(OCc2cn(-c3ccc(C(=O)O)cc3)nn2)cc1 [6b] | – | – | – | – | > 200 µM | melting point: 205 to 206 °C |
| CC(=O)c1ccc(-n2cc(COc3ccc(/C=C4\C(=O)N(c5ccc(Cl)cc5)N=C4C)cc3)nn2)cc1 [6c] | 92.1 ± 7 | 4.46 ± 0.034 | 24.5 ± 0.37 | 0.26 | 81.1 ± 3.9 µM | – |
| CC1=NN(c2ccc(Cl)cc2)C(=O)/C1=C\c1ccc(OCc2cn(-c3ccc(F)cc3)nn2)cc1 [6d] | 172 ± 13 | 7.38 ± 0.007 | 55.47 ± 0.27 | 0.60 | 42.4 ± 3.8 µM | – |
| CC1=NN(c2ccc(Cl)cc2)C(=O)/C1=C\c1ccc(OCc2cn(-c3ccc([N+](=O)[O-])cc3)nn2)cc1 [6e] | 66.4 ± 5.1 | 17.4 ± 0.19 | 49.5 ± 1.01 | 0.53 | 30.1 ± 1.4 µM | – |
| CC1=NN(c2ccc(Cl)cc2)C(=O)/C1=C\c1ccc(OCc2cn(-c3ccc(Cl)cc3)nn2)cc1 [6f] | 51.4 ± 3.9 | 1.54 ± 0.089 | 30.2 ± 0.31 | 0.31 | 144 ± 6.9 µM | – |
| CC1=NN(c2ccc(Cl)cc2)C(=O)/C1=C\c1ccc(OCc2cn(-c3ccc(Cl)c(Cl)c3)nn2)cc1 [6g] | 235 ± 18 | 12.23 ± 0.05 | 38.74 ± 0.3 | 0.41 | 200 ± 9.5 µM | – |
| CC1=NN(c2ccc(Cl)cc2)C(=O)/C1=C\c1ccc(OCc2cn(-c3ccc(C)c(F)c3)nn2)cc1 [6h] | 33.7 ± 2.6 | 15.5 ± 0.003 | 64.2 | 0.66 | 5.08 ± 3.5 µM | – |
| CC1=NN(c2ccc(Cl)cc2)C(=O)/C1=C\c1ccc(OCc2cn(CC(=O)Nc3ccc(C(=O)O)cc3)nn2)cc1 [6i] | 22.1 | 21.86 ± 0.09 | 64 | 0.67 | 3.17 µM and 7.55 µM and 3.1 µM and 3.16 µM | IC50 [4]: 21.1 ± 1.6 µM |
| CC1=NN(c2ccc(Cl)cc2)C(=O)/C1=C\c1ccc(OCc2cn(CC(=O)Nc3ccc(F)cc3)nn2)cc1 [6j, (Z)-2-(4-((4-((1-(4-Chlorophenyl)-3-methyl-5-oxo-1H-pyrazol-4(5H)-ylidene)methyl)phenoxy)methyl)-1H-1,2,3-triazol-1-yl)-N-(4-fluorophenyl)acetamide] | 156 ± 12 | 16.16 ± 0.03 | 39.65 ± 0.25 | 0.46 | 49.4 ± 2.4 µM | – |
| CC1=NN(c2ccccc2)C(=O)/C1=C\c1ccc(OCc2cn(CC(=O)Nc3ccc(F)cc3)nn2)cc1 [6k, (Z)-N-(4-Fluorophenyl)-2-(4-((4-((3-methyl-5-oxo-1-phenyl-1H-pyrazol-4(5H)-ylidene)methyl)phenoxy)methyl)-1H-1,2,3-triazol-1-yl)acetamide] | – | – | – | – | > 200 µM | melting point: 201 to 203 °C; IC50 ([3]; unit inferred, read-out: IC50 (numbers printed in the chart of Figure 5)): 200 µM |
| CC1=NN(c2ccc(Cl)cc2)C(=O)/C1=C\c1ccc(OCc2cn(CC(=O)Nc3ccc([N+](=O)[O-])cc3)nn2)cc1 [6l, (Z)-2-(4-((4-((1-(4-Chlorophenyl)-3-methyl-5-oxo-1H-pyrazol-4(5H)-ylidene)methyl)phenoxy)methyl)-1H-1,2,3-triazol-1-yl)-N-(4-nitrophenyl)acetamide] | 32.6 ± 2.5 | 8.84 ± 0.11 | 46.91 ± 0.28 | – | 135 ± 6.5 µM | – |
| CC1=NN(c2ccc(Cl)cc2)C(=O)/C1=C\c1ccc(OCc2cn(CC(=O)Nc3ccc(C)c(F)c3)nn2)cc1 [6m, (Z)-2-(4-((4-((1-(4-Chlorophenyl)-3-methyl-5-oxo-1H-pyrazol-4(5H)-ylidene)methyl)phenoxy)methyl)-1H-1,2,3-triazol-1-yl)-N-(3-fluoro-4-methylphenyl)acetamide] | 189 ± 14 | 9.55 ± 0.02 | ~50 | 0.49 | 25.7 ± 0.4 µM | – |
| CC1=NN(c2ccc(Cl)cc2)C(=O)/C1=C\c1ccc(OCc2cn(CC(=O)NCc3ccc(Cl)cc3)nn2)cc1 [6n, (Z)-N-(4-Chlorobenzyl)-2-(4-((4-((1-(4-chlorophenyl)-3-methyl-5-oxo-1H-pyrazol-4(5H)-ylidene)methyl)phenoxy)methyl)-1H-1,2,3-triazol-1-yl)acetamide] | 23.1 ± 1.8 | 3.73 ± 0.01 | 51.13 ± 0.14 | 0.55 | 86.6 ± 4.1 µM | – |
| CC1=NN(c2ccc(Cl)cc2)C(=O)/C1=C\c1ccc(OCc2cn(CC(=O)NCc3ccc(C)cc3)nn2)cc1 [6o, (Z)-2-(4-((4-((1-(4-Chlorophenyl)-3-methyl-5-oxo-1H-pyrazol-4(5H)-ylidene)methyl)phenoxy)methyl)-1H-1,2,3-triazol-1-yl)-N-(4-methylbenzyl)acetamide] | 262 ± 20 | 12.23 ± 0.1 | 54.1 ± 0.61 | 0.56 | 43.3 ± 2.1 µM | – |
| COc1ccc(CNC(=O)Cn2cc(COc3ccc(/C=C4\C(=O)N(c5ccc(Cl)cc5)N=C4C)cc3)nn2)cc1 [6p, (Z)-2-(4-((4-((1-(4-Chlorophenyl)-3-methyl-5-oxo-1H-pyrazol-4(5H)-ylidene)methyl)phenoxy)methyl)-1H-1,2,3-triazol-1-yl)-N-(4-methoxybenzyl)acetamide] | 20.1 ± 1.5 | 9.5 ± 0.11 | ~50 | 0.54 | 23.7 ± 1.1 µM | – |
| CC1=NN(c2ccc(Cl)cc2)C(=O)/C1=C\c1ccc(OCc2cn(CC(=O)NCc3ccc(F)cc3)nn2)cc1 [6q, (Z)-2-(4-((4-((1-(4-Chlorophenyl)-3-methyl-5-oxo-1H-pyrazol-4(5H)-ylidene)methyl)phenoxy)methyl)-1H-1,2,3-triazol-1-yl)-N-(4-fluorobenzyl)acetamide] | > 20 | 12.9 ± 0.03 | 79 | 0.84 | 3.16 µM and 7.55 µM | IC50 [4]: 35.3 ± 2.7 µM |
| CC(C)CC(NC(=O)OCc1ccccc1)C(=O)NC(CC1CCNC1=O)C(O)S(=O)(=O)O (centres unmarked) [GC-376, reference compound] | 41.2 ± 1.1 | 78.96 ± 0.67 | 92.9 ± 1.15 | 0.99 | – | – |
| CCC(CC)COC(=O)[C@H](C)N[P@](=O)(OC[C@H]1O[C@@](C#N)(c2ccc3c(N)ncnn23)[C@H](O)[C@@H]1O)Oc1ccccc1 [REM, remdesivir, reference compound] | – | – | – | 1.0 | – | cytotoxicity to Vero E6 cells ([4]; positive control): no cytotoxicity; IC50 [1]: 61.8 ± 4.7 µM; inhibition at 1 µM ([2]; Severe acute respiratory syndrome coronavirus 2, Vero C1008, read-out: Anti-SARS-CoV-2 Effect Assay (%) 1 μM): 89.6 ± 0.98%; inhibition at 10 µM ([2]; Severe acute respiratory syndrome coronavirus 2, Vero C1008, read-out: Anti-SARS-CoV-2 Effect Assay (%) 10 μM): 93.3 ± 1.17% |
| N#Cc1ccc(N2N=C(c3ccccc3)/C(=C/c3ccc(C(=O)O)cc3)C2=O)cc1 [compound 7] | – | – | – | – | – | IC50 [5]: 5.5 µM |
| O=C(O)c1ccc(/C=C2\C(=O)N(c3ccc(F)cc3)N=C2c2ccccc2)cc1 [compound 8] | – | – | – | – | – | IC50 [5]: 6.8 µM |
| O=C(O)c1cccc(N2N=C(c3ccccc3)/C(=C/c3ccc(-c4ccccc4)o3)C2=O)c1 [compound 9] | – | – | – | – | – | IC50 [6]: 5.8 µM; IC50 [5]: 6.4 µM |
| CC(C)(C)c1ccc(N2N=C(c3ccccc3)/C(=C/c3ccc(-c4cc(Cl)ccc4C(=O)O)o3)C2=O)cc1 [compound 10] | – | – | – | – | – | IC50 [6]: 7.4 µM; IC50 [5]: 5.8 µM |
| Cc1cccc(C)c1OCC(=O)N[C@@H](Cc1ccccc1)[C@@H](O)C[C@H](Cc1ccccc1)NC(=O)[C@H](C(C)C)N1CCCNC1=O [lopinavir, reference compound] | – | – | – | – | 82.2 µM | – |
